According to patent publication US20240383869A1, “ARYLACETYL INHIBITORS OF TG2 AND USES THEREOF” (UNIVERSITY OF OTTAWA, priority 2021, published 2024):
Like-named read-outs stand apart in the source and are kept apart here.

Target: T1, hTG2 (Homo sapiens, UniProt P21980)
T1 sequence (P21980 1-687): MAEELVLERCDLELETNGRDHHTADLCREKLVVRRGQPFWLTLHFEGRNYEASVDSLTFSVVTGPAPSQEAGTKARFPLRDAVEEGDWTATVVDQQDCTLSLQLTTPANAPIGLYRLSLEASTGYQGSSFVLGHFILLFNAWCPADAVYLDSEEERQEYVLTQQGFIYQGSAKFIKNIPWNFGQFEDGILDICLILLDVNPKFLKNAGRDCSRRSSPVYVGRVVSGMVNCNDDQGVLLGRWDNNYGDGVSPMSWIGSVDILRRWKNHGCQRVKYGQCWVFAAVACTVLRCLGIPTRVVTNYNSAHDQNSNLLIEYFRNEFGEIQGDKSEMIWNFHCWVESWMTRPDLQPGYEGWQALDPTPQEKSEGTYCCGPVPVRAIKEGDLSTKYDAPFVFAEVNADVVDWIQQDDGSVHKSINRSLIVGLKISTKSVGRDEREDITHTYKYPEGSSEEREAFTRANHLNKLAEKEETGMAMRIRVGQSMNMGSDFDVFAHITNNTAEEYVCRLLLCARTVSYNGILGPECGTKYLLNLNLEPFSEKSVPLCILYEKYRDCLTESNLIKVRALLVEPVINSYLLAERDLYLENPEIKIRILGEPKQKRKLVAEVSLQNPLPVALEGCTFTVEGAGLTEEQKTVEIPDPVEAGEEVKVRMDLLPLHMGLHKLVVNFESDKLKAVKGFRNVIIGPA
Test: biochemical
Description: The ability of the compounds to inhibit TG2 transamidase activity and the kinetics of TG2 inhibition were investigated using a colorimetric activity assay, as follows:
Colorimetric transamidase activity assay. The activities of hTG1, hTG2 and hTG6 were measured via a colorimetric assay using the chromogenic substrate Cbz-Glu(γ-p-nitrophenyl ester)Gly (AL5), as described (Leblanc, A. et al., “Kinetic studies of guinea pig liver transglutaminase reveal a general-base-catalyzed deacylation mechanism.” Biochemistry 2001, 40 (28), 8335-8342). Assays were conducted at 25° C. in 50 mM MOPS buffer (pH 6.95) containing 7.5 mM CaCl2. […] The substrate AL5 was prepared in as a stock solution in DMSO such that the final concentration of this co-solvent was constant at 2.5% v/v. Stock solutions of the inhibitors were made in water ranging in concentration from 100-500 μM. The reaction was initiated with the addition of enzyme, 0.10 μM hTG1, 0.25 μM hTG2 (4.6 mU/mL) or 0.32 μM hTG6. Formation of hydrolysis product, p-nitrophenolate (pNP), was monitored at 405 nm in a polystyrene 96-well microplate using a BioTek Synergy 4 plate reader. The observed first-order rate constants of inactivation (kobs) were determined via non-linear regression fit to a mono-exponential model (Eqn 1) of absorbance versus time curves. These rate constants (kobs) were in turn fit to a saturation kinetics model (Eqn 2), by non-linear regression, providing the kinetic parameters kinact and KI, as previously described by Stone and Hofsteenge (Stone, S. R. and Hofsteenge, J., “Specificity of activated human protein C.” Biochem. J. 1985, 230 (2), 497-502). […] Experiments were completed in triplicate at minimum.
Fitting of this time-dependent inactivation to a monoexponential equation gave first-order rate constants, kobs. […] In some cases, the kinetic data were fitted to a linear double reciprocal equation.

[1] = values determined using a double-reciprocal analysis, read-out: KI (converted)
[2] = values determined using a double-reciprocal analysis, read-out: kinact (converted)
[3] = values determined using a double-reciprocal analysis, read-out: kinact/KI (converted)
[4] = fit to saturation kinetics model, 25° C., pH 6.95, 100 μM AL5, read-out: KI (converted)
[5] = fit to saturation kinetics model, 25° C., pH 6.95, 100 μM AL5, read-out: kinact (converted)
[6] = fit to saturation kinetics model, 25° C., pH 6.95, 100 μM AL5, read-out: kinact/KI (converted)

C=CC(=O)NCCCC[C@H](NC(=O)c1ccncc1)C(=O)N1CCN(C(=O)c2cccc3ccccc23)CC1 [Inhibitor 20, (S)-N-(1-(4-(1-naphthoyl)piperazin-1-yl)-6-acrylamido-1-oxohexan-2-yl)isonicotinamide]
Ki [1]: 19.3 ± 4.3 µM
kinact [2]: 0.004 s⁻¹
kinact/KI [3]: 212 M⁻¹ s⁻¹

C=CC(=O)NCCCC[C@H](NC(=O)c1ccc2ccccc2c1)C(=O)N1CCN(C(=O)c2cccc3ccccc23)CC1 [Inhibitor 65, (S)-N-(1-(4-(1-naphthoyl)piperazin-1-yl)-6-acrylamido-1-oxohexan-2-yl)-2-naphthamide]
Ki [4]: 8 ± 1.8 µM
kinact [5]: 0.00483 s⁻¹
kinact/KI [6]: 608 M⁻¹ s⁻¹

C=CC(=O)NCCCC[C@H](NC(=O)Cc1ccc(F)cc1)C(=O)N1CCN(C(=O)c2cccc3ccccc23)CC1 [Inhibitor 70, (S)-N-(6-(4-(1-naphthoyl)piperazin-1-yl)-5-(2-(4-fluorophenyl)acetamido)-6-oxohexyl)acrylamide]
Ki [4]: 4.2 ± 0.9 µM
kinact [5]: 0.00817 s⁻¹
kinact/KI [6]: 1980 M⁻¹ s⁻¹

C=CC(=O)NCCCC[C@H](NC(=O)Cc1cccc(Cl)c1Cl)C(=O)N1CCN(C(=O)c2cccc3ccccc23)CC1 [Inhibitor 78, (S)-N-(6-(4-(1-naphthoyl)piperazin-1-yl)-5-(2-(2,3-dichlorophenyl)acetamido)-6-oxohexyl)acrylamide]
Ki [4]: 2.7 ± 2.8 µM
kinact [5]: 0.00767 s⁻¹
kinact/KI [6]: 2830 M⁻¹ s⁻¹

C=CC(=O)NCCCC[C@H](NC(=O)Cc1ccccc1OC)C(=O)N1CCN(C(=O)c2cccc3ccccc23)CC1 [Inhibitor 75, (S)-N-(6-(4-(1-naphthoyl)piperazin-1-yl)-5-(2-(2-methoxyphenyl)acetamido)-6-oxohexyl)acrylamide]
Ki [4]: 4.6 ± 2.9 µM
kinact [5]: 0.0233 s⁻¹
kinact/KI [6]: 4980 M⁻¹ s⁻¹

C=CC(=O)NCCCC[C@H](NS(=O)(=O)CC)C(=O)N1CCN(C(=O)c2cccc3ccccc23)CC1 [Inhibitor 90, (S)-N-(6-(4-(1-naphthoyl)piperazin-1-yl)-5-(ethylsulfonamido)-6-oxohexyl)acrylamide]
Ki [4]: 26.6 ± 1.1 µM
kinact [5]: 0.0138 s⁻¹
kinact/KI [6]: 518 M⁻¹ s⁻¹

C=CC(=O)NCCCC[C@H](NC(=O)Cc1cccc(Cl)c1)C(=O)N1CCN(C(=O)c2cccc3ccccc23)CC1 [Inhibitor 73, (S)-N-(6-(4-(1-naphthoyl)piperazin-1-yl)-5-(2-(3-chlorophenyl)acetamido)-6-oxohexyl)acrylamide]
Ki [4]: 1 ± 0.5 µM
kinact [5]: 0.005 s⁻¹
kinact/KI [6]: 4830 M⁻¹ s⁻¹

C=CC(=O)NCCCC[C@H](NC(=O)CC(C)C)C(=O)N1CCN(C(=O)c2cccc3ccccc23)CC1 [Inhibitor 38, (S)-N-(1-(4-(1-naphthoyl)piperazin-1-yl)-6-acrylamido-1-oxohexan-2-yl)-3-methylbutanamide]
Ki [4]: 9.7 ± 1.9 µM
kinact [5]: 0.0107 s⁻¹
kinact/KI [6]: 1110 M⁻¹ s⁻¹

C=CC(=O)NCCCC[C@H](NS(=O)(=O)c1ccccc1)C(=O)N1CCN(C(=O)c2cccc3ccccc23)CC1 [Inhibitor 89, (S)-N-(6-(4-(1-naphthoyl)piperazin-1-yl)-6-oxo-5-(phenylsulfonamido)hexyl)acrylamide]
Ki [1]: 88.8 ± 6.7 µM
kinact [2]: 0.0105 s⁻¹
kinact/KI [3]: 118 M⁻¹ s⁻¹

C=CC(=O)NCCCC[C@H](NC(=O)Cc1ccc(F)cc1F)C(=O)N1CCN(C(=O)c2cccc3ccccc23)CC1 [Inhibitor 80, (S)-N-(6-(4-(1-naphthoyl)piperazin-1-yl)-5-(2-(2,4-difluorophenyl)acetamido)-6-oxohexyl)acrylamide]
Ki [4]: 2.8 ± 0.9 µM
kinact [5]: 0.0103 s⁻¹
kinact/KI [6]: 3730 M⁻¹ s⁻¹

C=CC(=O)NCCCC[C@H](NC(=O)c1cccc(F)c1)C(=O)N1CCN(C(=O)c2cccc3ccccc23)CC1 [Inhibitor 63, (S)-N-(1-(4-(1-naphthoyl)piperazin-1-yl)-6-acrylamido-1-oxohexan-2-yl)-3-fluorobenzamide]
Ki [4]: 13.4 ± 3.5 µM
kinact [5]: 0.0107 s⁻¹
kinact/KI [6]: 797 M⁻¹ s⁻¹
Ki [1]: 9.9 µM
kinact [2]: 0.0085 s⁻¹
kinact/KI [3]: 860 M⁻¹ s⁻¹

C=CC(=O)NCCCC[C@H](NC(=O)Cc1ccccc1C(F)(F)F)C(=O)N1CCN(C(=O)c2cccc3ccccc23)CC1 [Inhibitor 81, (S)-N-(6-(4-(1-naphthoyl)piperazin-1-yl)-5-(2-(2-trifluoromethylphenyl)acetamido)-6-oxohexyl)acrylamide]
Ki [4]: 10.1 ± 3.1 µM
kinact [5]: 0.0167 s⁻¹
kinact/KI [6]: 1670 M⁻¹ s⁻¹

C=CC(=O)NCCCC[C@H](NC(=O)CC)C(=O)N1CCN(C(=O)c2cccc3ccccc23)CC1 [Inhibitor 40, (S)-N-(6-(4-(1-naphthoyl)piperazin-1-yl)-6-oxo-5-propionamidohexyl)acrylamide]
Ki [4]: 5.1 ± 1 µM
kinact [5]: 0.00883 s⁻¹
kinact/KI [6]: 1720 M⁻¹ s⁻¹

C=CC(=O)NCCCC[C@H](NC(=O)C1C2CC3CC(C2)CC1C3)C(=O)N1CCN(C(=O)c2cccc3ccccc23)CC1 (stereo partly drawn) [Inhibitor 33, (1S,3S,5S,7S)-N-((S)-1-(4-(1-naphthoyl)piperazin-1-yl)-6-acrylamido-1-oxohexan-2-yl)adamantane-2-carboxamide]
Ki [4]: 15.3 ± 0.3 µM
kinact [5]: 0.00383 s⁻¹
kinact/KI [6]: 248 M⁻¹ s⁻¹

C=CC(=O)NCCCC[C@H](NC(=O)c1cn(C)cn1)C(=O)N1CCN(C(=O)c2cccc3ccccc23)CC1 [Inhibitor 22, (S)-N-(1-(4-(1-naphthoyl)piperazin-1-yl)-6-acrylamido-1-oxohexan-2-yl)-1-methyl-1H-imidazole-4-carboxamide]
Ki [4]: 22.3 ± 5 µM
kinact [5]: 0.00467 s⁻¹
kinact/KI [6]: 210 M⁻¹ s⁻¹

C=CC(=O)NCCCC[C@H](NC(=O)C1CC1)C(=O)N1CCN(C(=O)c2cccc3ccccc23)CC1 [Inhibitor 36, (S)-N-(1-(4-(1-naphthoyl)piperazin-1-yl)-6-acrylamido-1-oxohexan-2-yl)cyclopropanecarboxamide]
Ki [4]: 10.6 ± 3.6 µM
kinact [5]: 0.017 s⁻¹
kinact/KI [6]: 1610 M⁻¹ s⁻¹

C=CC(=O)NCCCC[C@H](NC(=O)c1cccc2ccccc12)C(=O)N1CCN(C(=O)c2cccc3ccccc23)CC1 [Inhibitor 66, (S)-N-(1-(4-(1-naphthoyl)piperazin-1-yl)-6-acrylamido-1-oxohexan-2-yl)-1-naphthamide]
Ki: 9.3 µM
kinact: 0.00433 s⁻¹
kinact/KI: 458 M⁻¹ s⁻¹
Ki [4]: 20.3 ± 5.1 µM
kinact/KI (pH 6.95): 335 M⁻¹ s⁻¹

C=CC(=O)NCCCC[C@H](NC(=O)c1ccccc1F)C(=O)N1CCN(C(=O)c2cccc3ccccc23)CC1 [Inhibitor 62, (S)-N-(1-(4-(1-naphthoyl)piperazin-1-yl)-6-acrylamido-1-oxohexan-2-yl)-2-fluorobenzamide]
Ki [4]: 10 ± 2.6 µM
kinact [5]: 0.0065 s⁻¹
kinact/KI [6]: 657 M⁻¹ s⁻¹

C=CC(=O)NCCCC[C@H](NC(=O)CCc1ccccc1)C(=O)N1CCN(C(=O)c2cccc3ccccc23)CC1 [Inhibitor 68, (S)-N-(6-(4-(1-naphthoyl)piperazin-1-yl)-6-oxo-5-(3-phenylpropanamido)hexyl)acrylamide]
Ki [4]: 2.8 ± 0.3 µM
kinact [5]: 0.01 s⁻¹
kinact/KI [6]: 3570 M⁻¹ s⁻¹

C=CC(=O)NCCCC[C@H](NC(=O)c1ccc(F)cc1)C(=O)N1CCN(C(=O)c2cccc3ccccc23)CC1 [Inhibitor 64, (S)-N-(1-(4-(1-naphthoyl)piperazin-1-yl)-6-acrylamido-1-oxohexan-2-yl)-4-fluorobenzamide]
Ki [4]: 16.2 ± 7.5 µM
kinact [5]: 0.015 s⁻¹
kinact/KI [6]: 923 M⁻¹ s⁻¹
Ki [1]: 11.6 µM
kinact [2]: 0.0117 s⁻¹
kinact/KI [3]: 1010 M⁻¹ s⁻¹

C=CC(=O)NCCCC[C@H](NS(=O)(=O)Cc1ccccc1)C(=O)N1CCN(C(=O)c2cccc3ccccc23)CC1 [Inhibitor 88]
Ki [4]: 46.7 ± 10.2 µM
kinact [5]: 0.00883 s⁻¹
kinact/KI [6]: 190 M⁻¹ s⁻¹
